Source: US20240116952A1, “KRAS INHIBITOR AND PHARMACEUTICAL USES THEREOF” (RISEN (SUZHOU) PHARMA TECH CO., LTD., priority 2022, published 2024)
Where “and” joins values, the source holds several entries; their conditions need not be identical. Equal values may be shown once. Read-outs that look alike come from different tables or passages of the source.

What was measured:
[1] = tested on: AsPC-1 cells; assay: Tumor growth inhibition in mouse AsPC-1 CDX model, compounds given parenterally (IP/IV); type: in vivo; conditions: for TGI (%): 27 days; for tumor growth inhibition compared to vehicle control: FIG. 6
Experimental: (§1) Balb/C nude mice, aged 6-8 weeks, were inoculated subcutaneously with 5×10^6 AsPC-1 pancreatic cancer cells, in 0.1 ml PBS. Eleven days post-inoculation, tumor bearing animals were randomized into Vehicle (four mice), Compound A1 (four mice) and Compound 1 (five mice), followed by oral dosing twice daily at 100 mg/kg for Compound A1 and 126 mg/kg for Compound 1 (Table 6). Tumor volume was measured every three days using a caliper, and tumor size was calculated using the formula TV=length×width^2×0.5. Tumor growth inhibition (TGI) was calculated using the given formula TGI=[1−(Vtx_t−Vtx_0)/(Vct_t−Vct_0)]×100%, where Vtx_t means tumor volume in treatment group measured at time point t, Vtx_0 means tumor volume of treatment group measured at time point 0, Vct_t means tumor volume of vehicle group measured at time point t, and Vct_0 means tumor volume of vehicle group measured at time point 0.
Balb/C nude mice bearing tumors derived from AsPC-1 cells as described previously, were grouped into Vehicle intraperitoneal (IP) (five mice), Compound A1 IP (five mice), Compound A1 intravenous (IV) (three mice), Compound 52 IP (five mice) and Compound 52 IV injections (six mice). All compounds were administered once daily at equal molarity (Compound A1, 6 mg/kg) for 27 days. Tumor volume was measured and calculated as described previously.

[2] = tested on: GP2D colonrectal cancer cells; type: in vivo; conditions: for TGI (%): 21 days
Experimental: After Balb/C nude mice (aged 6-8 weeks) were inoculated subcutaneously with 5×10^6 GP2D colonrectal cancer cells, in 0.1 ml PBS, they were grouped 11 days post-inoculation and treated with intraperitoneal injections of the given compounds for 21 days. Note that Compound 52 at 40.3 mg/kg and Compound 53 at 43 mg/kg are molar equivalent to 18 mg/kg of Compound A1. Tumor volume and TGI were measured and calculated as described before (Table 8).
Balb/C nude mice, aged 6-8 weeks, were inoculated subcutaneously with 5×10^6 GP2D colonrectal cancer cells, in 0.1 ml PBS. Eleven days post the inoculation, tumor bearing animals were randomly grouped based on given compounds and vehicle. Compound A1, as positive control, was IP administered at 18 mg/kg qd for 21 days. Compound 52 at 40.3 mg/kg (molar equivalent to 18 mg/kg of Compound A1) was IV administered q3d, and subsequently switched to 27 mg/kg for 21 days. Compound 53 at 43 mg/kg (molar equivalent to 18 mg/kg of Compound A1) was either IV or IP dosed q3d for 21 days (Table 8).

[3] = tested on: AsPC-1 pancreatic cancer cells; assay: Efficacy study in mouse AsPC-1 CDX model, compounds given orally; type: in vivo, Balb/C nude mice; conditions: BID; for effect on mouse body weight: given orally; for TGI (%): oral, Compound A1 100 mg/kg for 12 days, Compound 1 126 mg/kg (molar equivalent) for 16 days
Experimental: as §1

[4] = Mouse PK study: blood AUC of compound A1 after oral or intravenous administration; type: in vivo; conditions: ICR mice, equimolar dose
Experimental: A total 126 ICR mice (male, 30-34 g) were randomly divided into 42 groups with 3 animals/group (oral or intravenous administration). Blood samples were collected at 0.167, 0.5, 1, 2, 4, 6, 8, and 24 hours post-dose for oral group and 0.083, 0.25, 0.5, 1, 2, 4, 6, and 8 hours post-dose for intravenous group. The test compounds were dissolved into vehicle solutions (5% DMSO+5% Solutol+90% 20% SBE-β-CD solvents).
Animals were administered with compound A1 or exemplary test compounds by intravenous bolus administration at 3 mg/kg (equimolar dose to compound A1) and oral administration at 10 mg/kg (equimolar dose to compound A1) after fasted 12 hours, respectively. Post-dose blood samples were collected at preset time point (50 μL/animal/time point), and 20 μL blood was accurately separated into 200 μL eppendorf (EP) tube containing acetonitrile and internal standard. The supernatant was prepared by centrifuging the blood samples at approximately 4° C., 12000 rpm for 5 minutes. All samples were then quickly frozen over dry ice and kept at −60° C. or lower until analysis. The supernatant was analyzed by LC-MS/MS to detect the concentration of test compounds and metabolites.

[5] = IP, qd, Compound A1 6 mg/kg, Compound 52 13.44 mg/kg (molar equivalent)
[6] = IP, qd, Compound A1 18 mg/kg, Compound 52 40.3 mg/kg (molar equivalent)

| SMILES | TGI (%) [1, 5] [%] | tumor growth inhibition compared to vehicle control ([1]; intraperitoneal administration) | TGI (%) [2, 6] [%] | effect on mouse body weight [3] | TGI (%) [3] | further results |
| --- | --- | --- | --- | --- | --- | --- |
| C#Cc1c(F)ccc2cc(OC(=O)OC(COC(=O)CCCCCCCC)COC(=O)CCCCCCCC)cc(-c3ncc4c(N5CC6CCC(C5)N6)nc(OC[C@@]56CCCN5C[C@H](F)C6)nc4c3F)c12 [Compound 52] | 36.12 | significant tumor growth inhibition | 87.1 |  |  | TGI (%) ([1]; IV, qd, Compound 52 13.44 mg/kg (molar equivalent to 6 mg/kg A1)): 47.22%; tumor growth inhibition compared to vehicle control ([1]; intravenous injection): significant tumor growth inhibition; body weight of mice ([2]; IV 27 mg/kg once every 3 days): remained normal; TGI (%) ([2]; IV, q3d, 27 mg/kg (molar equivalent to 12 mg/kg A1)): 80.0%; death of recipient animals ([2]; intravenously dosed at 40.3 mg/kg (molar equivalent to 18 mg/kg A1)): 50%; growth inhibition of tumors harboring the KRAS^G12D mutation ([2]; parenterally administered with the dosages of Table 8): significant growth inhibition |
| C#Cc1c(F)ccc2cc(O)cc(-c3ncc4c(N5CC6CCC(C5)N6)nc(OC[C@@]56CCCN5C[C@H](F)C6)nc4c3F)c12 [Compound A1, reference compound] | 37.27 | significant tumor growth inhibition | 85.0 | Neither Compound 1 nor A1 adversely affected mouse body weight | 9.07% | animal death observed (footnote D in TGI column) ([1]; IV, qd, Compound A1 6 mg/kg, 3 mice): caused the death of all mice within 24 hours |
| C#Cc1c(F)ccc2cc(O)cc(-c3ncc4c(N5CC6CCC(C5)N6C(=O)OC(C)OC(=O)CCC)nc(OC[C@@]56CCCN5C[C@H](F)C6)nc4c3F)c12 (stereo partly drawn) [Compound 1] |  |  |  | Neither Compound 1 nor A1 adversely affected mouse body weight | 53.5% and 53.95% |  |
| C#Cc1c(F)ccc2cc(O)cc(-c3ncc4c(N5CC6CCC(C5)N6C(=O)OC(C)OC(=O)CC(C)C)nc(OC[C@@]56CCCN5C[C@H](F)C6)nc4c3F)c12 (stereo partly drawn) [Compound 10] |  |  |  |  |  | AUC of A1 increased compared to direct oral administration of A1 [4]: more than 8.5 times |
